Data published in US20230227445A1, “BENZAMIDE COMPOUND AND USE THEREOF” (HUMANWELL HEALTHCARE (GROUP) CO., LTD., priority 2020, published 2023).

Assays:
[1] = system: ATP/citric acid-stimulated cough in guinea pig; assay: Efficacy test for ATP/citric acid-stimulated cough in guinea pig; assay type: in vivo; details: guinea pigs, nasal drops, 0.17 mg/kg to 1.5 mg/kg, ATP/citric acid stimulation
Experimental: Guinea pigs were adaptively fed for 3 days to 7 days before being grouped. When the body weight of the guinea pigs reached 300 g to 400 g, they were numbered and randomly grouped. Compounds or an excipient were administered to guinea pigs by nasal drops 0.25 hour to 24 hours before the start of the cough assessment. The administration dose of the test sample ranged from 0.17 mg/kg to 1.5 mg/kg. For the cough assessment, the guinea pigs were placed in a whole-body volume scan box for adaptation, and then provided with ATP nebulization, and a few minutes later, they were provided with citric acid nebulization. The cough times within 15 minutes and the cough latency were recorded from the beginning of citric acid nebulization.
(§1) The experimental data was statistically analyzed by one-way ANOVA to analyze and compare data of the various groups. The statistical analysis result p<0.05 was regarded as a significant difference. The t-test was employed for difference comparison between any two.

rat taste = assay: Taste test in rat (water vs 0.3 mM aqueous quinine solution intake); assay type: in vivo, SD rats
Experimental: SD rats were administered with the corresponding compound after 3 days of overnight water prohibition training. Each rat was supplied with 1 bottle of water and 1 bottle of 0.3 mM aqueous quinine solution half an hour after the administration. After 15 min of water supply, the bottles were removed. The intake amount of water and the intake amount of the 0.3 mM aqueous quinine solution were measured, respectively. The taste influence of the compound on SD rats was evaluated based on the difference between the intake amount of water and the intake amount of the aqueous quinine solution.

[2] = Pharmacokinetic assay in mouse; assay type: in vivo, ICR mice
Experimental: For a mouse pharmacokinetic assay, male ICR mice (20 g to 25 g) were selected and fasted overnight. Three mice were intragastrically administered with 10 mg/kg of the corresponding compound. The blood of the mice was collected before the administration and at 15 min, 30 min, 1 h, 2 h, 4 h, 8 h, and 24 h after the administration. The blood samples were centrifuged at 4° C. for 6 minutes at 6,800 g, plasma was collected and stored at −80° C.
The supernatant was mixed with 3 times the amount of water, and an appropriate amount of the mixed solution was taken for LC-MS/MS analysis. The primary pharmacokinetic parameters were analyzed by WinNonlin 7.0 software non-atrioventricular model.

[3] = Pharmacokinetic assay in rat; assay type: in vivo, SD rats
Experimental: For a rat pharmacokinetic assay, male SD rats (180 g to 240 g) were selected and fasted overnight. Three rats were intragastrically administered with 10 mg/kg of the corresponding compound. The blood of the rats was collected before the administration and at 15 min, 30 min, 1 h, 2 h, 4 h, 8 h, and 24 h after the administration. The blood samples were centrifuged at 4° C. for 6 minutes at 8,000 r/min, and plasma was collected and stored at −20° C. Plasma at each time point was taken, and added with 3 to 5 times the amount of an internal standard-containing acetonitrile solution to mix, and the mixture was vortex mixed for 1 minute, and centrifuged at 4° C. for 10 minutes at 13,000 r/min. The supernatant was taken and mixed with 3 times the amount of water, and an appropriate amount of the mixed solution was taken for LC-MS/MS analysis. The primary pharmacokinetic parameters were analyzed by WinNonlin 7.0 software non-atrioventricular model.

hP2X3 receptor = molecular target: T1, hP2X3 receptor (Homo sapiens, UniProt P56373); assay: Antagonistic activity against hP2X3 receptor by FLIPR calcium flow assay; assay type: cell-based
T1 construct: expressed in transfected cells
T1 sequence (P56373 1-397): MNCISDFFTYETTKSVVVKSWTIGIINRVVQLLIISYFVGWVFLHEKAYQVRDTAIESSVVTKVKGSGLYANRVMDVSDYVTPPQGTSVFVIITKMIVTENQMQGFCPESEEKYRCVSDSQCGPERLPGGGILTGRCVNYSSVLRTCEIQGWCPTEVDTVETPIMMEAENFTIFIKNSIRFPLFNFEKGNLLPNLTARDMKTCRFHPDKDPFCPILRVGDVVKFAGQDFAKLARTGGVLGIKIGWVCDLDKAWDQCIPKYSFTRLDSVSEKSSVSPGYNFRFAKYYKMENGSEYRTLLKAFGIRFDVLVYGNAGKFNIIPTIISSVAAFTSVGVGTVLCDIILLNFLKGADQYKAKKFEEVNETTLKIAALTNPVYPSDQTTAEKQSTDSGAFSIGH
Experimental: The antagonistic activity of hP2X3 antagonists against hP2X3 receptor was evaluated by means of FLIPR Calcium 4 Assay Kit (Molecular Devices, R8141) and FLIPR TETRA instrument (Molecular Devices, 0296) by detecting calcium flow signals. 24h before the experiment, human cells, which had been stably transfected with hP2X3 receptors, were plated on a 384-well plate at 2×10^5 cells/mL, with 50 μL of cell suspension per well, and the plate was cultured in an incubator (37° C., 5% CO2) for 16 h to 24 h. The test compound solution (20 to 50 mM DMSO stock solution) with a concentration of 180 times the required concentration was prepared using DMSO. The stock solution was added to the 384-well plate at 500 nL per well, supplemented with 30 μL of FLIPR Assay buffer (1×HBSS+2 mM CaCl2 20 mM HEPES containing 1.26 mM Ca^2+). The 384-well plate was shaken for 20 to 40 min to mix evenly. An agonist (α, β-meATP) with a concentration of 3 times the required concentration (required final concentration was 400 nM) was prepared with FLIPR Assay buffer, and was added to another 384-well plate at 45 μL per well. The culture plate, on which the cells were plated one day ago, was taken, the cell supernatant was sucked and discarded, each well was added with 30 μL of Dye (FLIPR® Calcium 4 Assay Kit, diluted with FLIPR buffer), and then the plate was incubated for 1h. 15 μL of compound was added to each well of cells (using FLIPR sample injector). After 15 minutes, 22.5 μL of the agonist was added to each well, and the fluorescence signal (exciting light wavelength ranging from 470 nm to 495 nm, and emission wavelength ranging from 515 nm to 575 nm) was detect. […] An inhibition effect curve of the compound was fitted on the software GraphpadPrism6, and the IC50 value was calculated.

[4] = system: histamine/citric acid-stimulated cough in guinea pig; assay: Efficacy test for histamine/citric acid-stimulated cough in guinea pig; assay type: in vivo; details: guinea pigs, nasal drops, 0.17 mg/kg to 1.5 mg/kg, histamine/citric acid stimulation
Experimental: Guinea pigs were adaptively fed for 3 days to 7 days before being grouped. When the body weight of the guinea pigs reached 300 g to 400 g, they were numbered and randomly grouped.
Compounds or an excipient were administered to guinea pigs by nasal drops 0.25 hour to 24 hours before the start of the cough assessment. The administration dose of the test sample ranged from 0.17 mg/kg to 1.5 mg/kg. For the cough assessment, the guinea pigs were placed in a whole-body volume scan box for adaptation, and then, they were provided with histamine nebulization and then citric acid nebulization. […]
as §1

[5] = mouse, plasma, po, male ICR mice, intragastric administration, 10 mg/kg
[6] = rat, plasma, po, male SD rats, intragastric administration, 10 mg/kg

Water/aqueous quinine solution (ratio of water intake to aqueous quinine solution intake) (rat taste; SD rats, 30 mg/kg i.p, 0.3 mM quinine, 15 min supply half an hour after administration): 18.2
AUC(0-t) [2, 5]: 12100 ng·h/mL
Cmax [2, 5]: 1550 ng/mL
Tmax [2, 5]: 2 h
half-life ([2]; mouse, plasma, po, male ICR mice, intragastric administration, 10 mg/kg, read-out: T½ (converted)): 2.3 h
pharmacokinetic properties in rat compared with reference compound 1 (in words) ([3]; rat model, vs reference compound 1): improved to certain extent
AUC(0-t) [3, 6]: 5940 ng·h/mL
Cmax [3, 6]: 569 ng/mL
Tmax [3, 6]: 4 h
half-life ([3]; rat, plasma, po, male SD rats, intragastric administration, 10 mg/kg, read-out: T½ (converted)): 3.61 h
IC50 (hP2X3 receptor; human cells stably transfected with hP2X3, agonist α,β-meATP 400 nM): 83 nM
antagonistic activity against hP2X3 receptor compared with Reference compound 1 (in words) (hP2X3 receptor; vs Reference compound 1): better antagonistic activity
SMILES: Cc1cnc(-c2cc(O[C@@H]3CCOC3)cc(C(=O)N[C@H](C)c3cnc(C(F)(F)F)nc3)c2F)s1 [Compound I-1, 2-fluoro-3-(5-methylthiazol-2-yl)-5-(((R)-tetrahydrofuran-3-yl)oxy)-N—((R)-1-(2-(trifluoromethyl)pyrimidin-5-yl)ethyl)benzamide]
Average cough times within 15 min [1]: 6.5
Cough inhibition rate vs. solvent [1]: 67.2%
interference on rat taste compared with Reference compound 1 (in words) (rat taste; vs positive reference compound): significantly less interference on rat taste
pharmacokinetic properties in mouse compared with Reference compound 1 and Reference compound 2 (in words) ([2]; mouse assay, vs Reference compounds 1 and 2): significantly improved pharmacokinetic properties
Average cough times within 15 min [4]: 10.8
Cough inhibition rate vs. solvent [4]: 59.4%
